The source made the active and inactive calls. The rule behind the calls is not given here.
How the values were obtained:
[1] = Inhibition of microtubule assembly at 100 uM
[2] = Inhibition of microtubule assembly
MCF7 [3] = test: Cytotoxicity against human MCF7 cells; assay type: functional
MCF7 [4] = test: Ratio of ED50 for drug to ED50 for epothilone B against human MCF7 cells; assay type: functional

Question: With `C/C(=C\c1csc(C)n1)[C@@H]1C/C=C\CCC[C@H](COCc2ccccc2)C(O)[C@@H](C)C(=O)C(C)(C)C(O)CC(=O)O1` (some centres undefined) as the compound, how does the Activity [1] read?
Answer: inactive

Question: And the EC50 [2]?
Answer: 2500 nM

Question: And the Activity (MCF7 [3])?
Answer: 2.1 µM

Question: And the “Ratio ED50” value (MCF7 [4])?
Answer: 1050

Source: ChEMBL document CHEMBL1157351, “Total synthesis and evaluation of C25-benzyloxyepothilone C for tubulin assembly and cytotoxicity against MCF-7 breast cancer cells” (Bioorg Med Chem Lett, 2008)
